According to PubChem BioAssay AID1259407 (Chemical Carcinogenesis Research Information System (CCRIS), 2018):
Active and inactive are the calls of the source. How the calls were made is not given here.

Test system: CCRIS mutagenicity, Ames/micronucleus/aberration tests
Assay: CCRIS mutagenicity studies
[1] = Test System: AMES SALMONELLA TYPHIMURIUM, Strain/Indicator: TA98, Metabolic Activation: HAMSTER, LIVER, S-9, AROCLOR 1254, Method: STANDARD PLATE
[2] = Test System: AMES SALMONELLA TYPHIMURIUM, Strain/Indicator: TA98, Metabolic Activation: NONE, Method: STANDARD PLATE
[3] = Test System: AMES SALMONELLA TYPHIMURIUM, Strain/Indicator: TA98, Metabolic Activation: RAT, LIVER, S-9, AROCLOR 1254, Method: STANDARD PLATE
[4] = Test System: AMES SALMONELLA TYPHIMURIUM, Strain/Indicator: TA100, Metabolic Activation: HAMSTER, LIVER, S-9, AROCLOR 1254, Method: STANDARD PLATE
[5] = Test System: AMES SALMONELLA TYPHIMURIUM, Strain/Indicator: TA100, Metabolic Activation: NONE, Method: STANDARD PLATE
[6] = Test System: AMES SALMONELLA TYPHIMURIUM, Strain/Indicator: TA100, Metabolic Activation: RAT, LIVER, S-9, AROCLOR 1254, Method: STANDARD PLATE
[7] = Test System: AMES SALMONELLA TYPHIMURIUM, Strain/Indicator: TA1535, Metabolic Activation: HAMSTER, LIVER, S-9, AROCLOR 1254, Method: STANDARD PLATE
[8] = Test System: AMES SALMONELLA TYPHIMURIUM, Strain/Indicator: TA1535, Metabolic Activation: NONE, Method: STANDARD PLATE
[9] = Test System: AMES SALMONELLA TYPHIMURIUM, Strain/Indicator: TA1535, Metabolic Activation: RAT, LIVER, S-9, AROCLOR 1254, Method: STANDARD PLATE
[10] = Test System: AMES SALMONELLA TYPHIMURIUM, Strain/Indicator: TA1537, Metabolic Activation: HAMSTER, LIVER, S-9, AROCLOR 1254, Method: STANDARD PLATE
[11] = Test System: AMES SALMONELLA TYPHIMURIUM, Strain/Indicator: TA1537, Metabolic Activation: NONE, Method: STANDARD PLATE
[12] = Test System: AMES SALMONELLA TYPHIMURIUM, Strain/Indicator: TA1537, Metabolic Activation: RAT, LIVER, S-9, AROCLOR 1254, Method: STANDARD PLATE
[13] = Test System: AMES SALMONELLA TYPHIMURIUM, Strain/Indicator: TA1538, Metabolic Activation: HAMSTER, LIVER, S-9, AROCLOR 1254, Method: STANDARD PLATE
[14] = Test System: AMES SALMONELLA TYPHIMURIUM, Strain/Indicator: TA1538, Metabolic Activation: NONE, Method: STANDARD PLATE
[15] = Test System: AMES SALMONELLA TYPHIMURIUM, Strain/Indicator: TA1538, Metabolic Activation: RAT, LIVER, S-9, AROCLOR 1254, Method: STANDARD PLATE
[16] = Test System: AMES SALMONELLA TYPHIMURIUM, Strain/Indicator: TA102, Metabolic Activation: NONE, Method: STANDARD PLATE

Measured: mutagenic call

C/C=N/O
inactive: [1] inactive; negative | [2] inactive; negative | [3] inactive; negative | [4] inactive; negative | [5] inactive; negative | [6] inactive; negative | Test System: AMES SALMONELLA TYPHIMURIUM, Strain/Indicator: TA102, Metabolic Activation: RAT, LIVER, S-9, PHENOBARBITAL AND 5,6-BENZOFLAVONE, Method: STANDARD PLATE inactive; negative | [7] inactive; negative | [8] inactive; negative | [9] inactive; negative | [10] inactive; negative | [11] inactive; negative | [12] inactive; negative | [13] inactive; negative | [14] inactive; negative | [15] inactive; negative | Test System: AMES SALMONELLA TYPHIMURIUM, Strain/Indicator: TA2638, Metabolic Activation: RAT, LIVER, S-9, PHENOBARBITAL AND 5,6-BENZOFLAVONE, Method: STANDARD PLATE inactive; negative | Test System: E. COLI, Strain/Indicator: WP2 (PKM101), Metabolic Activation: RAT, LIVER, S-9, PHENOBARBITAL AND 5,6-BENZOFLAVONE, Method: STANDARD PLATE inactive; negative | Test System: E. COLI, Strain/Indicator: WP2 UVRA (PKM101), Metabolic Activation: RAT, LIVER, S-9, PHENOBARBITAL AND 5,6-BENZOFLAVONE, Method: STANDARD PLATE inactive; negative | Test System: Mouse lymphoma, Strain/Indicator: L5178Y (tk+tk-), Metabolic Activation: None, Method: Suspension/plate inactive; negative
active: Test System: MOUSE LYMPHOMA, Strain/Indicator: L5178Y (TK+/TK-), Metabolic Activation: RAT, LIVER, S-9, AROCLOR 1254, Method: SUSPENSION/PLATE active; positive. reevaluation of results: inconclusive | Test System: Mouse lymphoma, Strain/Indicator: L5178Y (tk+tk-), Metabolic Activation: Rat, Liver, S-9, Aroclor 1254, Method: Suspension/plate active; inconclusive (previously evaluated positive)

O=C(O)O
inactive: Test System: AMES SALMONELLA TYPHIMURIUM, Strain/Indicator: TA97, Metabolic Activation: NONE, Method: PREINCUBATION inactive; negative | Test System: AMES SALMONELLA TYPHIMURIUM, Strain/Indicator: TA97, Metabolic Activation: RAT, LIVER, S-9, AROCLOR 1254, Method: PREINCUBATION inactive; negative | [1] inactive; negative | [2] inactive; negative | [3] inactive; negative | [4] inactive; negative | [5] inactive; negative | [6] inactive; negative | Test System: AMES SALMONELLA TYPHIMURIUM, Strain/Indicator: TA102, Metabolic Activation: NONE, Method: PREINCUBATION inactive; negative | Test System: AMES SALMONELLA TYPHIMURIUM, Strain/Indicator: TA102, Metabolic Activation: RAT, LIVER, S-9, AROCLOR 1254, Method: PREINCUBATION inactive; negative | [7] inactive; negative | [8] inactive; negative | [9] inactive; negative | [10] inactive; negative | [11] inactive; negative | [12] inactive; negative | [13] inactive; negative | [14] inactive; negative | [15] inactive; negative | Test System: CHINESE HAMSTER V-79, Strain/Indicator: V-79/6-THIOGUANINE, Metabolic Activation: S-9 inactive; negative | Test System: Mouse lymphoma, Strain/Indicator: L5178Y (tk+/tk-), Metabolic Activation: None, Method: Suspension/plate inactive; negative | Test System: Mouse lymphoma, Strain/Indicator: L5178Y (tk+/tk-), Metabolic Activation: Rat, Liver, S-9, Aroclor 1254, Method: Suspension/plate inactive; negative
active: Test System: CHINESE HAMSTER V-79, Strain/Indicator: V-79/6-THIOGUANINE, Metabolic Activation: NONE active; positive

Cn1c(CC(=O)OCCCl)c(C(=O)O)c2ccccc21
inactive: Test System: AMES SALMONELLA TYPHIMURIUM, Strain/Indicator: TA97, Metabolic Activation: NONE, Method: STANDARD PLATE inactive; negative | Test System: AMES SALMONELLA TYPHIMURIUM, Strain/Indicator: TA97, Metabolic Activation: RAT, LIVER, S-9, AROCLOR 1254 (4%, 10%), Method: STANDARD PLATE inactive; negative | Test System: AMES SALMONELLA TYPHIMURIUM, Strain/Indicator: TA98, Metabolic Activation: RAT, LIVER, S-9, AROCLOR 1254 (4%, 10%), Method: STANDARD PLATE inactive; negative | [5] inactive; negative | Test System: AMES SALMONELLA TYPHIMURIUM, Strain/Indicator: TA100, Metabolic Activation: RAT, LIVER, S-9, AROCLOR 1254 (4%, 10%), Method: STANDARD PLATE inactive; negative | [16] inactive; negative | Test System: AMES SALMONELLA TYPHIMURIUM, Strain/Indicator: TA102, Metabolic Activation: RAT, LIVER, S-9, AROCLOR 1254 (4%, 10%), Method: STANDARD PLATE inactive; negative
active: [2] active; positive

CC(=O)O[C@H]1CC[C@]2(C)[C@H]3CC[C@]4(C)[C@@H]([C@H](C)CCCC(C)C)CC[C@H]4[C@@H]3C[C@@H]3N(N4C(=O)c5ccccc5C4=O)[C@@]32C1 (some centres undefined)
inactive: [16] inactive; negative
active: Test System: AMES SALMONELLA TYPHIMURIUM, Strain/Indicator: TA97A, Metabolic Activation: NONE, Method: STANDARD PLATE active; positive | Test System: AMES SALMONELLA TYPHIMURIUM, Strain/Indicator: TA97A, Metabolic Activation: RAT, LIVER, S-9, AROCLOR 1254, Method: STANDARD PLATE active; positive | [2] active; positive | [5] active; positive | [6] active; positive | Test System: AMES SALMONELLA TYPHIMURIUM, Strain/Indicator: TA102, Metabolic Activation: RAT, LIVER, S-9, AROCLOR 1254, Method: STANDARD PLATE active; positive | Test System: AMES SALMONELLA TYPHIMURIUM, Strain/Indicator: TA104, Metabolic Activation: NONE, Method: STANDARD PLATE active; positive | Test System: AMES SALMONELLA TYPHIMURIUM, Strain/Indicator: TA104, Metabolic Activation: RAT, LIVER, S-9, AROCLOR 1254, Method: STANDARD PLATE active; positive

CNc1ccc2ccc3ccc(O)cc3c2c1
active: [3] active; positive | Test System: AMES SALMONELLA TYPHIMURIUM, Strain/Indicator: TA98, Metabolic Activation: RAT, LIVER, S-9, AROCLOR, Method: STANDARD PLATE active; positive
